Measured values published in PubChem BioAssay AID248 (DTP/NCI, 2004).
Where “and” joins values, the source holds several entries; their conditions need not be identical. Equal entries are not always repeated. Toxic doses and inconclusive results are not listed. Rule as the data show it: active = T/C of 150% or more; inactive = T/C below 125%.

Tested on: L1210 leukemia ip in BDF1 mice, survival T/C
Experiment: NCI In Vivo Anticancer Drug Screen. Data for tumor model L1210 Leukemia (intraperitoneal) in B6D2F1 (BDF1) mice
Details: endpoint: mean survival time, higher = longer survival
Summary of the method: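 Mice bearing the transplanted tumor received compound or vehicle. Survival of the treated group was divided by that of the vehicle-treated control group to give the ratio.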

[1] = dose: 100.0 mg/kg/injection, schedule: Q04DX002 (ip), vehicle: Klucel (hydroxypropylcellulose) (HPC)
[2] = dose: 100.0 mg/kg/injection, schedule: Q04DX003 (ip), vehicle: saline with Tween-80
[3] = dose: 200.0 mg/kg/injection, schedule: Q04DX003 (ip), vehicle: saline with Tween-80
[4] = dose: 400.0 mg/kg/injection, schedule: Q04DX003 (ip), vehicle: saline with Tween-80
[5] = dose: 100.0 mg/kg/injection, schedule: Q01DX009 (ip), vehicle: saline with Tween-80
[6] = dose: 200.0 mg/kg/injection, schedule: Q01DX009 (ip), vehicle: saline with Tween-80

Measured: T/C

CCCCCCCC(C(=O)O)C(CCCCCCC)C(=O)O (configuration not stated)
inactive: dose: 6.0 mg/kg/injection, schedule: Q01DX009 (ip), vehicle: saline 89 % of control | dose: 12.0 mg/kg/injection, schedule: Q01DX009 (ip), vehicle: saline 96 % of control | dose: 12.0 mg/kg/injection, schedule: Q04DX003 (ip), vehicle: saline 98 % of control | dose: 25.0 mg/kg/injection, schedule: Q04DX003 (ip), vehicle: saline 104 % of control

COc1cc2c(cc1OC)/C(=C(\C#N)CCC(C)=O)NCC2
inactive: dose: 100.0 mg/kg/injection, schedule: Q01DX001 (ip), vehicle: carboxymethylcellulose (CMC) 92 % of control | dose: 200.0 mg/kg/injection, schedule: Q01DX001 (ip), vehicle: carboxymethylcellulose (CMC) 92 % of control

CCOc1nc(N)nc(-c2ccc(OC)cc2)c1Br
inactive: dose: 100.0 mg/kg/injection, schedule: Q04DX002 (ip), vehicle: saline with Tween-80 94 % of control | dose: 200.0 mg/kg/injection, schedule: Q04DX002 (ip), vehicle: saline with Tween-80 102 % of control | dose: 400.0 mg/kg/injection, schedule: Q04DX002 (ip), vehicle: saline with Tween-80 97 % of control

O=S=Nc1cc(Cl)c(Cl)cc1Cl
inactive: dose: 25.0 mg/kg/injection, schedule: Q04DX002 (ip), vehicle: saline 103 % of control | dose: 50.0 mg/kg/injection, schedule: Q04DX002 (ip), vehicle: saline 100 % of control | dose: 100.0 mg/kg/injection, schedule: Q04DX002 (ip), vehicle: saline 95 % of control and 109 % of control

N=C1N=C(N)CS1
inactive: dose: 100.0 mg/kg/injection, schedule: Q01DX001 (ip), vehicle: saline 95 % of control | dose: 200.0 mg/kg/injection, schedule: Q01DX001 (ip), vehicle: saline 104 % of control | dose: 400.0 mg/kg/injection, schedule: Q01DX001 (ip), vehicle: saline 101 % of control

O=C(/C=C\c1ccccc1)OCc1ccccc1CN1C=CCC1
inactive: [1] 86 % of control | dose: 200.0 mg/kg/injection, schedule: Q04DX002 (ip), vehicle: Klucel (hydroxypropylcellulose) (HPC) 104 % of control | dose: 400.0 mg/kg/injection, schedule: Q04DX002 (ip), vehicle: Klucel (hydroxypropylcellulose) (HPC) 86 % of control

CC(=O)OCC(C)OC(C)=O (configuration not stated)
inactive: dose: 100.0 mg/kg/injection, schedule: Q01DX009 (ip), vehicle: saline 98 % of control | dose: 100.0 mg/kg/injection, schedule: Q04DX003 (ip), vehicle: saline 106 % of control | dose: 200.0 mg/kg/injection, schedule: Q01DX009 (ip), vehicle: saline 95 % of control | dose: 200.0 mg/kg/injection, schedule: Q04DX003 (ip), vehicle: saline 97 % of control | dose: 400.0 mg/kg/injection, schedule: Q01DX009 (ip), vehicle: saline 92 % of control | dose: 400.0 mg/kg/injection, schedule: Q04DX003 (ip), vehicle: saline 97 % of control

CC(=O)NC1C(NC(=O)C(CC(=O)O)NC(=O)OCc2ccccc2)OC(COC(C)=O)C(OC(C)=O)C1OC(C)=O (configuration not stated)
inactive: dose: 50.0 mg/kg/injection, schedule: Q04DX002 (ip), vehicle: Klucel (hydroxypropylcellulose) (HPC) 94 % of control | [1] 91 % of control

CCCCN(C)N=Nc1ccc(S(N)(=O)=O)cc1
inactive: dose: 30.0 mg/kg/injection, schedule: Q01DX Z (ip), vehicle: carboxymethylcellulose (CMC) 92 % of control | dose: 60.0 mg/kg/injection, schedule: Q01DX Z (ip), vehicle: carboxymethylcellulose (CMC) 92 % of control | dose: 90.0 mg/kg/injection, schedule: Q01DX Z (ip), vehicle: carboxymethylcellulose (CMC) 105 % of control

Nc1nc(SCCc2ccccc2)c2[nH]cnc2n1
inactive: dose: 125.0 mg/kg/injection, schedule: Q01DX Z (ip), vehicle: carboxymethylcellulose (CMC) 97 % of control | dose: 200.0 mg/kg/injection, schedule: Q01DX Z (ip), vehicle: carboxymethylcellulose (CMC) 123 % of control | dose: 250.0 mg/kg/injection, schedule: Q01DX Z (ip), vehicle: carboxymethylcellulose (CMC) 100 % of control | dose: 500.0 mg/kg/injection, schedule: Q01DX Z (ip), vehicle: carboxymethylcellulose (CMC) 106 % of control | dose: 1000.0 mg/kg/injection, schedule: Q01DX Z (ip), vehicle: carboxymethylcellulose (CMC) 93 % of control

N#CC(C#N)=Cc1c(Cl)cccc1Cl
inactive: dose: 6.25 mg/kg/injection, schedule: Q01DX001 (ip), vehicle: Klucel (hydroxypropylcellulose) (HPC) 96 % of control | dose: 6.25 mg/kg/injection, schedule: Q04DX003 (ip), vehicle: Klucel (hydroxypropylcellulose) (HPC) 94 % of control | dose: 12.5 mg/kg/injection, schedule: Q01DX001 (ip), vehicle: Klucel (hydroxypropylcellulose) (HPC) 103 % of control | dose: 12.5 mg/kg/injection, schedule: Q04DX003 (ip), vehicle: Klucel (hydroxypropylcellulose) (HPC) 114 % of control | dose: 25.0 mg/kg/injection, schedule: Q01DX001 (ip), vehicle: Klucel (hydroxypropylcellulose) (HPC) 96 % of control and 109 % of control | dose: 25.0 mg/kg/injection, schedule: Q04DX003 (ip), vehicle: Klucel (hydroxypropylcellulose) (HPC) 97 % of control | dose: 100.0 mg/kg/injection, schedule: Q01DX001 (ip), vehicle: Klucel (hydroxypropylcellulose) (HPC) 105 % of control

O=P1(N(CCF)CCF)NCCCO1 (configuration not stated)
inactive: dose: 2.5 mg/kg/injection, schedule: Q01DX Z (ip), vehicle: saline 96 % of control | dose: 5.0 mg/kg/injection, schedule: Q01DX Z (ip), vehicle: saline 91 % of control | dose: 10.0 mg/kg/injection, schedule: Q01DX Z (ip), vehicle: other 93 % of control | dose: 10.0 mg/kg/injection, schedule: Q01DX Z (ip), vehicle: saline 115 % of control | dose: 30.0 mg/kg/injection, schedule: Q01DX Z (ip), vehicle: other 106 % of control

COc1ccc(-c2cnc(C(N)=O)c(=O)[nH]2)cc1
inactive: [2] 88 % of control | [3] 95 % of control | [4] 91 % of control

COC(=O)[C@]1(C)CCC[C@]2(C)c3ccc(C(C)C)cc3CC[C@@H]12
inactive: dose: 0.5 mg/kg/injection, schedule: Q01DX009 (ip), vehicle: Klucel (hydroxypropylcellulose) (HPC) 100 % of control | dose: 0.5 mg/kg/injection, schedule: Q04DX003 (ip), vehicle: Klucel (hydroxypropylcellulose) (HPC) 107 % of control | dose: 1.0 mg/kg/injection, schedule: Q01DX009 (ip), vehicle: Klucel (hydroxypropylcellulose) (HPC) 111 % of control | dose: 1.0 mg/kg/injection, schedule: Q04DX003 (ip), vehicle: Klucel (hydroxypropylcellulose) (HPC) 93 % of control | dose: 2.0 mg/kg/injection, schedule: Q01DX009 (ip), vehicle: Klucel (hydroxypropylcellulose) (HPC) 98 % of control | dose: 2.0 mg/kg/injection, schedule: Q04DX003 (ip), vehicle: Klucel (hydroxypropylcellulose) (HPC) 98 % of control | [2] 96 % of control | [3] 107 % of control | [4] 102 % of control

O=c1oc2ccccc2c2c1C(c1ccc3c(c1)OCO3)C=C(c1ccc3c(c1)OCO3)O2 (configuration not stated)
inactive: dose: 25.0 mg/kg/injection, schedule: Q01DX009 (ip), vehicle: water 101 % of control | dose: 50.0 mg/kg/injection, schedule: Q01DX009 (ip), vehicle: water 100 % of control | dose: 100.0 mg/kg/injection, schedule: Q01DX009 (ip), vehicle: water 97 % of control | dose: 200.0 mg/kg/injection, schedule: Q01DX009 (ip), vehicle: water 95 % of control | dose: 400.0 mg/kg/injection, schedule: Q01DX009 (ip), vehicle: water 102 % of control

CCOC(=O)/C(=C\c1cccc2ccccc12)c1ccncc1
inactive: dose: 100.0 mg/kg/injection, schedule: Q01DX001 (ip), vehicle: saline with Tween-80 89 % of control | [5] 98 % of control | dose: 200.0 mg/kg/injection, schedule: Q01DX001 (ip), vehicle: saline with Tween-80 93 % of control | [6] 100 % of control | dose: 400.0 mg/kg/injection, schedule: Q01DX001 (ip), vehicle: saline with Tween-80 96 % of control

COC(=O)c1ccc(C)cc1C(=O)OC
inactive: dose: 50.0 mg/kg/injection, schedule: Q01DX009 (ip), vehicle: saline with Tween-80 107 % of control | [5] 111 % of control | [6] 107 % of control

CC(=O)Oc1cc2ccccc2cc1C(C)C
inactive: [5] 98 % of control | [2] 103 % of control | [6] 98 % of control | [3] 95 % of control | dose: 400.0 mg/kg/injection, schedule: Q01DX009 (ip), vehicle: saline with Tween-80 88 % of control | [4] 90 % of control
